Source: patent EP4778924A1 (Huons Co., Ltd., priority 2023, dated 2025)
Structures can show the parent of a compound that is named as a salt.

Target: T1, Proton Pump (H^+,K^+-ATPase) (Sus scrofa, UniProt P19156)
T1 construct: gastric vesicles were isolated from porcine stomachs; from tissue; host or cells: porcine stomach (gastric vesicles)
Experiment: Inhibitory activity on proton pump (H+,K+-ATPase) activity, porcine gastric vesicles, malachite green readout
Format: biochemical
Conditions: for IC50: porcine gastric vesicles, pH 6.5, 8 mM KCl, 0.2 mM ATP; for inhibitory activity against proton pump activity: result in words
Experimental: Specifically, gastric vesicles were isolated from porcine stomachs, and the protein content of the vesicles was quantified using a BSA kit (Bio-Rad, 5000205). All reactions were performed in 96-well plates with a reaction volume of […] containing 100 ng of vesicles. 10 mM valinomycin and the test compound were added to reaction buffer (50 mM Tris-HEPES, 5 mM MgCl2, 8 mM KCl, pH 6.5) containing porcine gastric vesicles at various concentrations, and the mixture was incubated at 37°C for 30 minutes. DMSO or test compounds at different concentrations were added after diluting them to a final DMSO concentration of 0.1%. 0.2 mM adenosine triphosphate (ATP) was then added to the reaction buffer and incubated at 37°C for 20 minutes. The reaction was stopped with 0.2% Tween 20, followed by the addition of malachite green (Sigma Aldrich, MAK307) and incubation at room temperature for 30 minutes. The optical density (OD) value was measured at 620 nm using a microplate reader (Spectramax M5e, Molecular devices). The percent (%) inhibition was derived from the OD values of the control group and various concentrations of the test compounds. The IC50 of the test compounds was analyzed using nonlinear regression using the GraphPad Prism8 program using the % inhibition value at each concentration.

T1 sequence (P19156 2-1034 limits assumed): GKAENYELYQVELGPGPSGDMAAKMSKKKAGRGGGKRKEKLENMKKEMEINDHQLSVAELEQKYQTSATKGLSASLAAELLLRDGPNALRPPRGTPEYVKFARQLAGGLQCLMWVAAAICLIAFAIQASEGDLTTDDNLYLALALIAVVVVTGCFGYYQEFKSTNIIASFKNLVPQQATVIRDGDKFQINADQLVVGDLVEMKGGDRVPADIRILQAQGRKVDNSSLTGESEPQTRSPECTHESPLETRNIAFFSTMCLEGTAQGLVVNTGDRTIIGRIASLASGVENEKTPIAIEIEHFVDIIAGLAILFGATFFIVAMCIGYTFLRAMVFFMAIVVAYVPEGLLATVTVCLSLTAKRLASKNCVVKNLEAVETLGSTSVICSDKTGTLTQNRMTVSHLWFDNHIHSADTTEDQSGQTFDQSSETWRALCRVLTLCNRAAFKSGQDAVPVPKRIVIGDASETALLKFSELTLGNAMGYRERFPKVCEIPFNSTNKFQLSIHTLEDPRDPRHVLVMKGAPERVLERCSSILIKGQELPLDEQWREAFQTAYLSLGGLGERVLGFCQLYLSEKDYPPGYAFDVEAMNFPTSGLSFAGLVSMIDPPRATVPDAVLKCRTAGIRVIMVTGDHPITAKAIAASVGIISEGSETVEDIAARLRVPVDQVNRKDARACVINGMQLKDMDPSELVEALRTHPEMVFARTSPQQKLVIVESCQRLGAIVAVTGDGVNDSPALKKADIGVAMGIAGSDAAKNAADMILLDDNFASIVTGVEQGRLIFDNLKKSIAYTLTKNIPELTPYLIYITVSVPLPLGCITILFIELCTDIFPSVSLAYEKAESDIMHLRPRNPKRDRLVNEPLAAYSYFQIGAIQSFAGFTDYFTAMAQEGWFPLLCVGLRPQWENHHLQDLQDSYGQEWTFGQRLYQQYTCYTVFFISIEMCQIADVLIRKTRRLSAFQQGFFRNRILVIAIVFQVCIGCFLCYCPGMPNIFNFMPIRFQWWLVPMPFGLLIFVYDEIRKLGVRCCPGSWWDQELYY
T1 sequence (P18434 whole entry partner): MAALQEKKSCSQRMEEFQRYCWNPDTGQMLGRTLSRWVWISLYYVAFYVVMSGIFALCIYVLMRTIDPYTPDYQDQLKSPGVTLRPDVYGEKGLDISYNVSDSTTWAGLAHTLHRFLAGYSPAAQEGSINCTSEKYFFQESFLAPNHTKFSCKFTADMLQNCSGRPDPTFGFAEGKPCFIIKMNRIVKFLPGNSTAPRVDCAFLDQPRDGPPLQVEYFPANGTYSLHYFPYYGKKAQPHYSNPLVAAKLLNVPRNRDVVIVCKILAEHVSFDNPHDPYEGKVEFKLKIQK

| IC50 | SMILES | inhibitory activity against proton pump activity |
| --- | --- | --- |
| 100 to 500 nM | Cc1cccc(C)c1CNc1cc(NC(=O)NC(C)C)cn2c(C)c(C)nc12 [Example 31, 1-(8-((2,6-dimethylbenzyl)amino)-2,3-dimethylimidazo[1,2-a]pyridin-6-yl)-3-isopropylurea hydrochloride] |  |
| > 500 nM | CCOC(=O)CC(=O)Nc1cc(NCc2c(C)cccc2C)c2nc(C)c(C)n2c1 [Example 34, ethyl 3-((8-((2,6-dimethylbenzyl)amino)-2,3-dimethylimidazo[1,2-a]pyridin-6-yl)amino)-3-oxopropanoate] |  |
| 50 to 100 nM | Cc1cccc(C)c1CNc1cc(NC(=O)[C@@H]2CCN2)cn2c(C)c(C)nc12 [Example 35, (S)-N-(8-((2,6-dimethylbenzyl)amino)-2,3-dimethylimidazo[1,2-a]pyridin-6-yl)azetidine-2-carboxamide hydrochloride] |  |
| 50 to 100 nM | Cc1cccc(C)c1CNc1cc(NC(=O)[C@H]2CCN2)cn2c(C)c(C)nc12 [Example 36, (R)-N-(8-((2,6-dimethylbenzyl)amino)-2,3-dimethylimidazo[1,2-a]pyridin-6-yl)azetidine-2-carboxamide hydrochloride] |  |
| 50 to 100 nM | Cc1cccc(C)c1CNc1cc(NC(=O)NCCN)cn2c(C)c(C)nc12 [Example 37, 1-(2-aminoethyl)-3-(8-((2,6-dimethylbenzyl)amino)-2,3-dimethylimidazo[1,2-a]pyridin-6-yl)urea hydrochloride] |  |
| 100 to 500 nM | CCOC(=O)CCC(=O)Nc1cc(NCc2c(C)cccc2C)c2nc(C)c(C)n2c1 [Example 40, ethyl 4-((8-((2,6-dimethylbenzyl)amino)-2,3-dimethylimidazo[1,2-a]pyridin-6-yl)amino)-4-oxobutanoate] |  |
| < 50 nM | CNC(=O)Nc1cc(NCc2c(C)cc(F)cc2C)c2nc(C)c(C)n2c1 [Example 44, 1-(8-((4-fluoro-2,6-dimethylbenzyl)amino)-2,3-dimethylimidazo[1,2-a]pyridin-6-yl)-3-methylurea hydrochloride] |  |
| < 50 nM | Cc1cc(F)cc(C)c1CNc1cc(NC(=O)N(C)C)cn2c(C)c(C)nc12 [Example 49, 3-(8-((4-fluoro-2,6-dimethylbenzyl)amino)-2,3-dimethylimidazo[1,2-a]pyridin-6-yl)-1,1-dimethylurea hydrochloride] |  |
| < 50 nM | Cc1cc(F)cc(C)c1CNc1cc(NC(=O)NC2CC2)cn2c(C)c(C)nc12 [Example 50, 1-cyclopropyl-3-(8-((4-fluoro-2,6-dimethylbenzyl)amino)-2,3-dimethylimidazo[1,2-a]pyridin-6-yl)urea hydrochloride] |  |
| < 50 nM | Cc1cc(F)cc(C)c1CNc1cc(NC(=O)N2CCC2)cn2c(C)c(C)nc12 [Example 51, N-(8-((4-fluoro-2,6-dimethylbenzyl)amino)-2,3-dimethylimidazo[1,2-a]pyridin-6-yl)azetidine-1-carboxamide citrate] |  |
| > 500 nM | Cc1cccc(C)c1CNc1cc(NC(=O)CNC(=O)C(F)F)cn2c(C)c(C)nc12 [Example 56, N-(2-((8-((2,6-dimethylbenzyl)amino)-2,3-dimethylimidazo[1,2-a]pyridin-6-yl)amino)-2-oxoethyl)-2,2-difluoroacetamide] |  |
| 100 to 500 nM | Cc1cccc(C)c1CNc1cc(NC(=O)CNC(=O)C(C)(F)F)cn2c(C)c(C)nc12 [Example 57, N-(2-((8-((2,6-dimethylbenzyl)amino)-2,3-dimethylimidazo[1,2-a]pyridin-6-yl)amino)-2-oxoethyl)-2,2-difluoropropanamide] |  |
| 100 to 500 nM | Cc1cccc(C)c1CNc1cc(NC(=O)CNC(=O)C2CC(O)C2)cn2c(C)c(C)nc12 (stereo not drawn) [Example 58, N-(2-((8-((2,6-dimethylbenzyl)amino)-2,3-dimethylimidazo[1,2-a]pyridin-6-yl)amino)-2-oxoethyl)-3-hydroxycyclobutane-1-carboxamide] |  |
| 100 to 500 nM | Cc1cccc(C)c1CNc1cc(NC(=O)CNC(=O)C2CC(F)C2)cn2c(C)c(C)nc12 (stereo not drawn) [Example 59, N-(2-((8-((2,6-dimethylbenzyl)amino)-2,3-dimethylimidazo[1,2-a]pyridin-6-yl)amino)-2-oxoethyl)-3-fluorocyclobutane-1-carboxamide] |  |
| 50 to 100 nM | Cc1cccc(C)c1CNc1cc(NC(=O)N2CCOCC2)cn2c(C)c(C)nc12 [Example 61, N-(8-((2,6-dimethylbenzyl)amino)-2,3-dimethylimidazo[1,2-a]pyridin-6-yl)morpholine-4-carboxamide citrate] |  |
| 50 to 100 nM | Cc1cc(F)cc(C)c1CNc1cc(NC(=O)[C@H](C)N)cn2c(C)c(C)nc12 [Example 63, (S)-2-amino-N-(8-((4-fluoro-2,6-dimethylbenzyl)amino)-2,3-dimethylimidazo[1,2-a]pyridin-6-yl)propanamide hydrochloride] |  |
| < 50 nM | Cc1cc(F)cc(C)c1CNc1cc(NC(=O)CN)cn2c(C)c(C)nc12.Cl [Example 64, 2-amino-N-(8-((4-fluoro-2,6-dimethylbenzyl)amino)-2,3-dimethylimidazo[1,2-a]pyridin-6-yl)acetamide hydrochloride] | excellent inhibitory properties |

More lines, now with the values behind:

| SMILES | IC50 | inhibitory activity against proton pump activity |
| --- | --- | --- |
| Cc1cccc(C)c1CNc1cc(NC(=O)NCC2CC2)cn2c(C)c(C)nc12 [Example 30, 1-(cyclopropylmethyl)-3-(8-((2,6-dimethylbenzyl)amino)-2,3-dimethylimidazo[1,2-a]pyridin-6-yl)urea hydrochloride] | 100 to 500 nM |  |
| CCN(C)C(=O)Nc1cc(NCc2c(C)cccc2C)c2nc(C)c(C)n2c1 [Example 32, 3-(8-((2,6-dimethylbenzyl)amino)-2,3-dimethylimidazo[1,2-a]pyridin-6-yl)-1-ethyl-1-methylurea hydrochloride] | 50 to 100 nM |  |
| CNC(=O)Nc1cc(NCc2c(C)cccc2C)c2nc(C)c(C)n2c1 [Example 33, hydrochloride] | < 50 nM | excellent inhibitory properties |
| Cc1cccc(C)c1CNc1cc(NC(=O)CCC(=O)O)cn2c(C)c(C)nc12 [Example 38, 4-((8-((2,6-dimethylbenzyl)amino)-2,3-dimethylimidazo[1,2-a]pyridin-6-yl)amino)-4-oxobutanoic acid] | > 500 nM |  |
| Cc1cccc(C)c1CNc1cc(NC(=O)CCOCCC(=O)O)cn2c(C)c(C)nc12 [Example 39] | > 500 nM |  |
| Cc1cccc(C)c1CNc1cc(NC(=O)CCOCCC(=O)OC(C)(C)C)cn2c(C)c(C)nc12 [Example 41] | > 500 nM |  |
| Cc1cccc(C)c1CNc1cc(NC(=O)N(C)C)cn2c(C)c(C)nc12 [Example 43, 3-(8-((2,6-dimethylbenzyl)amino)-2,3-dimethylimidazo[1,2-a]pyridin-6-yl)-1,1-dimethylurea hydrochloride] | < 50 nM |  |
| COC(=O)CNC(=O)Nc1cc(NCc2c(C)cccc2C)c2nc(C)c(C)n2c1 [Example 46, hydrochloride] | 50 to 100 nM |  |
| CNC(=O)CNC(=O)Nc1cc(NCc2c(C)cccc2C)c2nc(C)c(C)n2c1 [Example 47, 2-(3-(8-((2,6-dimethylbenzyl)amino)-2,3-dimethylimidazo[1,2-a]pyridin-6-yl)ureido)-N-methylacetamide hydrochloride] | 50 to 100 nM |  |
| Cc1cccc(C)c1CNc1cc(NC(=O)NCC(=O)N(C)C)cn2c(C)c(C)nc12 [Example 48, 2-(3-(8-((2,6-dimethylbenzyl)amino)-2,3-dimethylimidazo[1,2-a]pyridin-6-yl)ureido)-N,N-dimethylacetamide hydrochloride] | 50 to 100 nM |  |
| CC(=O)NCC(=O)Nc1cc(NCc2c(C)cccc2C)c2nc(C)c(C)n2c1 [Example 52, 2-acetamido-N-(8-((2,6-dimethylbenzyl)amino)-2,3-dimethylimidazo[1,2-a]pyridin-6-yl)acetamide] | 100 to 500 nM |  |
| Cc1cccc(C)c1CNc1cc(NC(=O)CN(C)C)cn2c(C)c(C)nc12 [Example 53, 2-(dimethylamino)-N-(8-((2,6-dimethylbenzyl)amino)-2,3-dimethylimidazo[1,2-a]pyridin-6-yl)acetamide] | 100 to 500 nM |  |
| CCCNC(=O)Nc1cc(NCc2c(C)cccc2C)c2nc(C)c(C)n2c1 [Example 54] | 100 to 500 nM |  |
| Cc1cccc(C)c1CNc1cc(NC(=O)CNC(=O)C(C)(C)C)cn2c(C)c(C)nc12 [Example 55, N-(2-((8-((2,6-dimethylbenzyl)amino)-2,3-dimethylimidazo[1,2-a]pyridin-6-yl)amino)-2-oxoethyl)pivalamide] | > 500 nM |  |
| CC(=O)OCCNC(=O)Nc1cc(NCc2c(C)cccc2C)c2nc(C)c(C)n2c1 [Example 62, 2-(3-(8-((2,6-dimethylbenzyl)amino)-2,3-dimethylimidazo[1,2-a]pyridin-6-yl)ureido)ethyl acetate hydrochloride] | 100 to 500 nM |  |
| Cc1cc(F)cc(C)c1CNc1cc(NC(=O)[C@@H]2CCN2)cn2c(C)c(C)nc12 [Example 65, (S)-N-(8-((4-fluoro-2,6-dimethylbenzyl)amino)-2,3-dimethylimidazo[1,2-a]pyridin-6-yl)azetidine-2-carboxamide hydrochloride] | 50 to 100 nM |  |
| Cc1cccc(C)c1CNc1cc(NC(=O)N2CC3(CCC3)C2)cn2c(C)c(C)nc12 [Example 66, N-(8-((2,6-dimethylbenzyl)amino)-2,3-dimethylimidazo[1,2-a]pyridin-6-yl)-2-azaspiro[3.3]heptane-2-carboxamide citrate] | 100 to 500 nM |  |
